Laboratory results taken from US9388148B2, “Acylaminocycloalkyl compounds suitable for treating disorders that respond to modulation of dopamine D3 receptor” (AbbVie Deutschland GmbH & Co. KG, priority 2013, dated 2016).

How the values were obtained:
[1] = target: T1, human dopamine D3 receptors (Homo sapiens, UniProt P35462); assay: Dopamine D3 receptor binding ([125I]-iodosulpride displacement); settings: membranes of HEK-293 cells with human D3 receptors, 0.1 nM [125I]-iodosulpride
T1 construct: expressed in transfected cells; host or cells: HEK-293
T1 sequence (P35462 whole entry): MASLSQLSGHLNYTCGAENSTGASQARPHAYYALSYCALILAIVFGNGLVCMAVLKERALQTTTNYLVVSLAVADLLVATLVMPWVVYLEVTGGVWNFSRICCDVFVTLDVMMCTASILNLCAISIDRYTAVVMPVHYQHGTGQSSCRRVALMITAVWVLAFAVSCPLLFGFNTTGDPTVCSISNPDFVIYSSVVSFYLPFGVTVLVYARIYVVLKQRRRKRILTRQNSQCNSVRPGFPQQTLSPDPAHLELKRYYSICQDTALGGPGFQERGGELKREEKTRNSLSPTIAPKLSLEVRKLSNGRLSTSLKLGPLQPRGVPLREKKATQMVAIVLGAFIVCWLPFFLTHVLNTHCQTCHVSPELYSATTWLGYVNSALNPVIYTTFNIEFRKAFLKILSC
Experimental: (§1) The substance to be tested was either dissolved in methanol/Chremophor® (BASF SE) or in dimethyl sulfoxide and then diluted with water to the desired concentration.
(§2) Each assay mixture was run in triplicate. • The incubation buffer contained 50 mM tris, 120 mM NaCl, 5 mM KCl, 2 mM CaCl2, 2 mM MgCl2 and 0.1% bovine serum albumin, 10 μM quinolone and 0.1% ascorbic acid (prepared fresh daily). […] Each assay mixture was run in triplicate. • The incubation buffer contained 50 mM tris, 120 mM NaCl, 5 mM KCl, 2 mM CaCl2, 2 mM MgCl2 and 0.1% bovine serum albumin. The buffer was adjusted to pH 7.4 with HCl. c) Measurement and analysis: • After having been incubated at 25° C. for 60 minutes, the assay mixtures were filtered through a Whatman GF/B glass fiber filter under vacuum using a cell col-lecting device. The filters were transferred to scintillation viols using a filter transfer system. After 4 ml of Ultima Gold® (Packard) have been added, the samples were shaken for one hour and the radioactivity was then counted in a Beta-Counter (Packard, Tricarb 2000 or 2200CA).

[2] = target: T2, human dopamine D2L receptors (long isoform) (Homo sapiens, UniProt P14416); assay: Dopamine D2L receptor binding ([125I]iodospiperone displacement); settings: selectivity ratio, human D2L vs human D3 binding
T2 construct: expressed in transfected cells; host or cells: HEK-293
T2 sequence (P14416 whole entry, canonical isoform): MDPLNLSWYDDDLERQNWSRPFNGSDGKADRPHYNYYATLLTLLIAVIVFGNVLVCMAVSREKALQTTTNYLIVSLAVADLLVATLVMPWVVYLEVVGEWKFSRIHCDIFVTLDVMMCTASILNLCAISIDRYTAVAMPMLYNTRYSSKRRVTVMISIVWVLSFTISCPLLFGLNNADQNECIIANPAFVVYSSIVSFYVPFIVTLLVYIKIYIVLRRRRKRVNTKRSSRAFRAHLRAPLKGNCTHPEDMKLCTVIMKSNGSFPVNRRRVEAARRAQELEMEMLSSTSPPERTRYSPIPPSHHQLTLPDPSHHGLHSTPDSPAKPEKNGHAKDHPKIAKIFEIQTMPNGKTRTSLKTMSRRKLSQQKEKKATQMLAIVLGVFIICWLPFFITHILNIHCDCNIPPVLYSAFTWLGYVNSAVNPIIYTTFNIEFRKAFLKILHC
Experimental: as §1, §2

[3] = Determination of the microsomal half-life / microsomal clearance; assay type: in vitro ADME; settings: pH 7.4; human liver microsomes, 0.5 μM test substance, 0.25 mg protein/ml, NADPH, 37° C.; read-out: Human mCl (mikrosomal clearance)
Experimental: The metabolic stability of the compounds of the invention was determined in the following assay.
The test substances were incubated in a concentration of 0.5 μM as follows:
0.5 μM test substance are preincubated together with liver microsomes from different species (from rat, human or other species) (0.25 mg of microsomal protein/ml) in 0.05 M potassium phosphate buffer of pH 7.4 in microtiter plates at 37° C. for 5 min. The reaction is started by adding NADPH (1 mg/mL). After 0, 5, 10, 15, 20 and 30 min, 50 μl aliquots are removed, and the reaction is immediately stopped and cooled with the same volume of acetonitrile. The samples are frozen until analyzed. The remaining concentration of undegraded test substance is determined by MSMS. The half-life (T1/2) is determined from the gradient of the signal of test substance/unit time plot, it being possible to calculate the half-life of the test substance, assuming first order kinetics, from the decrease in the concentration of the compound with time. The microsomal clearance (mC1) is calculated from mC1=1n2/T1/2/(content of microsomal protein in mg/ml)×1000 [ml/min/mg] (modified from references: Di, The Society for Biomoleculur Screening, 2003, 453-462; Obach, DMD, 1999 vol 27. N 11, 1350-1359).

| Ki [1] [nM] | D2/D3, Ki (D2L)/Ki (D3) [2] | microsomal CLint at 0.5 μM [3] [µL/min/mg] | SMILES |
| --- | --- | --- | --- |
| < 10 | +++ (+++ >50) | – | CO[C@H]1C[C@H](C(=O)NC2CCC(CCN3CCN(c4cc(C(C)C)nc(C(C)(C)C)n4)CC3)CC2)C1 (relative stereo) [Compound 49, Trans-N-[4-[2-[4-(2-tert-butyl-6-isopropyl-pyrimidin-4-yl)-piperazin-1-yl]ethyl]cyclohexyl]-3-methoxy-cyclobutanecarboxamide] |
| < 10 | +++ (+++ >50) | – | CC(C)c1cc(N2CCN(CCC3CCC(NC(=O)[C@H]4C[C@H](O)C4)CC3)CC2)nc(C(C)(C)C)n1 (relative stereo) [Compound 50, Trans-N-[4-[2-[4-(2-tert-butyl-6-isopropyl-pyrimidin-4-yl)-piperazin-1-yl]ethyl]cyclohexyl]-3-hydroxy-cyclobutanecarboxamide] |
| – | +++ (+++ >50) | < 20 | CC(C)(C)c1nc(C2CCC2)cc(N2CCN(CC[C@H]3C[C@H](NC(=O)[C@H]4C[C@H](O)C4)C3)CC2)n1.O=C(O)C(F)(F)F [Compound 39, trans-N-[trans-3-[2-[4-(2-tert-butyl-6-cyclobutyl-pyrimidin-4-yl)piperazin-1-yl]ethyl]cyclobutyl]-3-hydroxy-cyclobutanecarboxamide; 2,2,2-trifluoroacetic acid] |
| < 10 | +++ (+++ >50) | – | CC(C)c1cc(N2CCN(CC[C@H]3CC[C@H](NC(=O)[C@H]4CC[C@H](O)CC4)CC3)C[C@@H]2C)nc(C(C)(C)C)n1 [Compound 41, Trans-N-[4-[2-[(3S)-4-(2-tert-butyl-6-isopropyl-pyrimidin-4-yl)-3-methyl-piperazin-1-yl]ethyl]cyclohexyl]-trans-4-hydroxy-cyclohexanecarboxamide] |
| < 10 | +++ (+++ >50) | – | CC(C)c1cc(N2CCN(CCC3CC(NC(=O)[C@H]4CC[C@H](O)CC4)C3)C[C@@H]2C)nc(C(C)(C)C)n1 (stereo partly drawn) [Compound 42, N-[3-[2-[(3S)-4-(2-tert-butyl-6-isopropyl-pyrimidin-4-yl)-3-methyl-piperazin-1-yl]ethyl]cyclobutyl]-trans-4-hydroxy-cyclohexanecarboxamide] |
| < 10 | +++ (+++ >50) | – | CC(C)c1cc(N2CCN(CC[C@H]3CC[C@@H](NC(=O)[C@H]4CC[C@H](O)CC4)CC3)CC2)nc(C(C)(C)C)n1 [Compound 43, Cis-N-[4-[2-[4-(2 tert-butyl-6-isopropyl-pyrimidin-4-yl)piperazin-1-yl]ethyl]cyclohexyl]-trans-4-hydroxy-cyclohexanecarboxamide] |
| < 10 | +++ (+++ >50) | – | C[C@H]1CN(CC[C@H]2CC[C@@H](NC(=O)[C@H]3CC[C@H](O)CC3)CC2)CCN1c1cc(C(F)F)nc(C(C)(C)C)n1 [Compound 44, Cis-N-[4-[2-[(3S)-4-[2-tert-butyl-6-(difluoromethyl)pyrimidin-4-yl]-3-methyl-piperazin-1-yl]ethyl]cyclohexyl]-trans-4-hydroxy-cyclohexanecarboxamide] |
| < 10 | +++ (+++ >50) | – | CC(C)c1cc(N2CCN(CCC3CC[C@H](NC(=O)[C@H]4CC[C@H](O)CC4)C3)C[C@@H]2C)nc(C(C)(C)C)n1 (stereo partly drawn) [Compound 45, Trans-N-[(1S)-3-[2-[(3S)-4-(2-tert-butyl-6-isopropyl-pyrimidin-4-yl)-3-methyl-piperazin-1-yl]ethyl]cyclopentyl]-4-hydroxy-cyclohexanecarboxamide] |
| < 10 | +++ (+++ >50) | – | CC(C)c1cc(N2CCN(CCC3CCC(NC(=O)[C@H]4CC[C@H](O)CC4)CC3)C[C@@H]2C)nc(C(C)(C)C)n1 (stereo partly drawn) [Compound 46, Trans-N-[4-[2-[(3S)-4-(2-tert-butyl-6-isopropyl-pyrimidin-4-yl)-3-methyl-piperazin-1-yl]ethyl]cyclohexyl]-4-hydroxy-cyclohexanecarboxamide] |
| < 10 | +++ (+++ >50) | – | CC(C)c1cc(N2CCN(CCC3CCC(NC(=O)[C@H]4C[C@H](O)C4)CC3)C[C@@H]2C)nc(C(C)(C)C)n1 (stereo partly drawn) [Compound 48, Trans-N-[4-[2-[(3S)-4-(2-tert-butyl-6-isopropyl-pyrimidin-4-yl)-3-methyl-piperazin-1-yl]ethyl]cyclohexyl]-3-hydroxycyclobutanecarboxamide] |
